The target of one data set is T1, original RP (pGT45) (Homo sapiens, UniProt P06401).
T1 construct: expressed in transfected cells; host or cells: mouse hind limb muscle in vivo (plasmid injection plus electroporation)
T1 sequence (P06401 640-914): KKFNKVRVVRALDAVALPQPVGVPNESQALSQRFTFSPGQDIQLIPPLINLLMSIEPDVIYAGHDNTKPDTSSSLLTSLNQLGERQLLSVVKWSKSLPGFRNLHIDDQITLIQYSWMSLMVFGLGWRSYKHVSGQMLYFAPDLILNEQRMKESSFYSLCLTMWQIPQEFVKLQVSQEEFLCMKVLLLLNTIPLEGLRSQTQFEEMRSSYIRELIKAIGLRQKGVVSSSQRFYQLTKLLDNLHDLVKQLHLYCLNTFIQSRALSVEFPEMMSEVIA
Put plainly: In vivo mSEAP serum level after inducer, mice with pGT45 (original RP). The conditions noted are these: 0.33 mg/kg or 1 mg/kg i.p. days 7-10.

The test system of data set [1] is IP-10. The data set is described as follows: MFP dose/response and plasmid re-injection with BRES-1/mIFN plasmid pGT26 in vivo, IP-10 ELISA. Set-up: species or system C57BI/6 mice. The conditions noted are these: MFP 0.0033 mg/kg i.p. days 7-10. As to the method:
The inducible mIFN-γ expression plasmid pGT26 was injected and electroporated on day 0 into hind limb muscles of C57BI/6 mice. […] Bleeds were taken on day 88 and 200, respectively. Serum was assayed for the chemokine IP-10 by ELISA. The results are shown as the mean (n=5 animals per group).
In addition, a complete pharmacokinetic profile of the expression of the therapeutic molecule (TM) can be performed using an activator molecule (AM) to determine the AM dose/response, as well as the kinetics of induction of TM expression following AM administration. […] Blood was collected at days 11 post-injection, and serum samples were assayed for IP-10 (see “Experimental Design” below for details). […] By day 67 the level of IP-10 had decreased several-fold from the day 11 level, so the plasmid DNA was re-injected at day 77.
For safety studies in humans, a complete characterization of the rate at which the activator molecule (AM) and TM expression can be turned “off” following withdrawal of the AM can be performed. The frequency of AM dosing necessary to achieve steady state levels of the TM can be evaluated.
• DNA solutions: Each mouse received 250 ug of plasmid DNA in 150 ul PBS. • DNA delivery: Adult male C57BI/6 mice were injected bilaterally on day 0 with 250 ug plasmid DNA per mouse in 150 ul PBS. […]
(In general: An ELISA detects its analyte on a solid surface through an enzyme-linked reagent.)

The next data set addresses T2, V729L/W755A RP (pBRES) (Homo sapiens, UniProt P06401, V729L/W755A).
T2 construct: expressed in transfected cells; host or cells: C2C12 mouse muscle cells
T2 sequence (P06401 640-914 V729L/W755A): T1 sequence (P06401 640-914) with V90L, W116A
The data set is described as follows: Induction of luciferase, mSEAP or hIFNb from pBRES with V729L/W755A RP in C2C12 cells. Type of data set: cell-based, mouse. The conditions noted are these: every orientation, three transgenes.

The test system of the next data set is murine acute EAE model. Put plainly: Mouse acute EAE model, clinical scoring. Type of data set: in vivo, SJL mice. The note with it: for clinical scores of EAE, positive controls: i.p. twice daily, Mesopram 9 mg/kg, Prednisolone 2.5 mg/kg.
The target of another data set is GAL-4 DBS. The conditions noted are these: read-out: Kd for binding; cited from earlier work.
The nature of data set [2]: Luciferase reporter gene assay for activity of purified mIFN-β protein. Type of data set: cell-based. The conditions noted are these: commercial mIFN-β reference standard. As for the experimental part:
Specifically, the gene encoding mIFN-β was cloned into a pCEP4 expression vector (Invitrogen). The expression plasmid encoding mIFN-β was transiently transfected into 293E cells (Edge Biosystems) using X-tremeGene Ro-1539 Transfection Reagent (Roche). Murine IFN-β protein was purified from the medium by ion-exchange chromatography and by hydrophobic-interaction chromatography. The product was sialyzed and concentrated against dilution buffer (50 mM sodium acetate, pH 5.5, 150 mM sodium chloride, and 5% polypropylene glycol) and sterile filtered. Aliquots of the purified protein were stored at −80° C. The activity of the purified protein was assessed using a luciferase reporter gene assay (Hardy et al. (2001) Blood 97:473-482), using a commercial mIFN-β reference standard from Access Biomedical (San Diego, Calif.). The specific activity of the purified protein was 2×10^8 units/mg.

In data set [3] the test system is Mx1 RNA. Put plainly: Mx1 RNA induction in L929 cells (TaqMan RT-PCR). It counts as cell-based, murine. As to the method:
FIG. 5 illustrates Mx1 RNA induction in vitro (in L929 cells) by mIFN-ÿ. L929 cells were seeded at 5×10^5 cells in 6 well plates and stimulated with increasing amounts of purified recombinant mIFN-ÿ protein. Four hours after treatment the cells were harvested, RNA isolated, and Mx1 RNA quantitated by TaqMan analysis. Mx1 RNA expression is plotted as the fold increase relative to GAPDH RNA.
A quantitative PCR/RT-PCR assay was developed to quantitate the levels of Mx1 mRNA in murine PBMC's. Specifically, peripheral blood mononuclear cells (PBMCs) were isolated from mice treated with either mIFN-β protein or following gene-based delivery of the mIFN-β gene. Blood samples obtained from treated mice were centrifuged on a ficoll cushion for 25 minutes at 2,000 rpm. Purified PBMCs were pelleted and RNA for the Mx1 assay was purified using the “RNAeasy” mini extraction kit from Qiagen. The RNA was stored in H2O at −80° C. Mx1 RT-PCR was performed using TaqMan® chemistry and analysis was done on the Applied Biosystems (ABI) PRISM® 7700 Sequence Detection instrument. For reverse transcription of the RNA and amplification of cDNA, the “One-step TaqMan® RNA” kit from ABI was used. […] The samples were analyzed with an Mx1-specific probe/primer combination. Mx1 expression was normalized to GAPDH expression measured in parallel using a standard assay from ABI. […]

The test system of data set [4] is Mx1 RNA. Put plainly: Mx1 RNA induction in PBMCs of mice (quantitative RT-PCR) after mIFN-β protein or gene delivery. It counts as in vivo, C57BI/6 mice.
Method: C57BI/6 mice were administered 15, 150, or 500 ng of purified recombinant mIFN-ÿ protein (specific activity-2.0×108 units/mg) by either i.v. (via tail vein) or i.m. injection (n=3 mice per group). At the specified time points post-injection mice were bled, and RNA was isolated from PBMCs. Mx1 RNA was measured by quantitative RT-PCR. The fold increase in Mx1 RNA is expressed relative to GAPDH values measured in the same samples. The controls include naive mice (N), and mice injected with the vehicle buffer only followed by Mx1 analysis at 2 hours (V2h) or 4h (V4h) post-injection. Each column represents the mean value+/−standard deviation.
A quantitative PCR/RT-PCR assay was developed to quantitate the levels of Mx1 mRNA in murine PBMC's. Specifically, peripheral blood mononuclear cells (PBMCs) were isolated from mice treated with either mIFN-β protein or following gene-based delivery of the mIFN-β gene. Blood samples obtained from treated mice were centrifuged on a ficoll cushion for 25 minutes at 2,000 rpm. […] The samples were analyzed with an Mx1-specific probe/primer combination. Mx1 expression was normalized to GAPDH expression measured in parallel using a standard assay from ABI.
B. Bolus Injection of mIFN-β Protein Induces Transient Biomarker Response In Vivo: The biomarker response after bolus injection of purified recombinant mIFN-β was measured in these studies.
Data set [5] deals with IP-10. Put plainly: IP-10 plasma level in mice (ELISA) after mIFN-β protein or gene delivery. Type of data set: in vivo, C57BI/6 mice. As for the experimental part: (§1) FIG. 7 illustrates induction levels of IP-10 (A) and JE (B) following i.v. or i.m. injection of murine IFN-ÿ protein. C57BI/6 mice were administered 15, 150, or 500 ng of purified recombinant mIFN-ÿ protein (specific activity=2.0×108 units/mg) by either i.v. (via tail vein) or i.m. injection (n=3 mice per group). The mice were bled at 2, 4, 6, 12, 24, and 48 hours post-injection, and the plasma levels of IP-10 and JE were measured by ELISA (R&D Systems).
FIG. 8 illustrates the induction of IP-10 following intramuscular injection of AAV-1-mIFN-ÿ DNA or mIFN-ÿ plasmid DNA with electroporation (EP) in mice. Normal mice (C57BI/6) were injected i.m. with either AAV-1-mIFN-ÿ (5×10^9 viral particles), or mIFN-ÿ plasmid DNA (150 ug) with electroporation. Mice were bled at the indicated time points and IP-10 levels in plasma were determined by ELISA. Each column represents the mean value+/−the standard deviation (n=5 mice per group).
C. Chemokines IP-10 and JE: During the analysis of plasma samples from mice treated with mIFN-β protein, two murine chemokines, IP-10 and JE the murine homologue of MCP-1 (monocyte chemoattractant protein, see e.g., Yoshimura, T (1989) FEBS Lett 244: 487-93), were also identified to have a similar response and activation to mIFN-β as Mx1 RNA (FIGS. 7 and 8). […]
The plasma samples were also analyzed for IP-10 and JE (FIGS. 7 and 8). […]

In another data set the test system is JE. The data set is described as follows: JE plasma level in mice (ELISA) after mIFN-β protein or gene delivery. It counts as in vivo, C57BI/6 mice. The conditions noted are these: each of three doses, i.v. or i.m. As to the method: as §1
C. Chemokines IP-10 and JE: During the analysis of plasma samples from mice treated with mIFN-β protein, two murine chemokines, IP-10 and JE the murine homologue of MCP-1 (monocyte chemoattractant protein, see e.g., Yoshimura, T (1989) FEBS Lett 244: 487-93), were also identified to have a similar response and activation to mIFN-β as Mx1 RNA (FIGS. 7 and 8). A strong induction of IP-10 and JE was seen 2 hours after administration of mIFN-β protein either i.v. or i.m. IP-10 levels increased 3000-fold at the high dose delivered i.v. With each of the three mIFN-β doses tested, a rapid drop to background in the plasma levels of IP-10 and JE was observed by 24 hours.

Where a chain is given by its changes, count along the chain named.

As a reminder, the Kd is a measure of binding affinity in units of concentration.

Method for original RP (pGT45): Upon the conclusion of in vitro testing, the divergent orientation of mSEAP and RP in pGT45 and pGT1048 were tested side-by-side in a mouse study. Mice were injected with plasmid DNA in the hind limbs and electroporation was used to deliver the DNA into the muscle cells on day 0. […] Six hours after the last injection on day 10, samples of blood were collected from the tail veins of the mice. mSEAP levels in the serum were measured to determine the level of this reporter expression following induction with compounds. Additional blood samples were collected prior to injection of inducers on day 7, as well as on days 18 and 25 to monitor the drop off of mSEAP expression.

In the case of `CC#C[C@]1(O)CC[C@H]2[C@@H]3CCC4=CC(=O)CCC4=C3[C@@H](c3ccc(N(C)C)cc3)C[C@@]21C` [MFP, 11-(4-dimethylaminophenyl)-17-hydroxy-17c-propynyl-4,9-estradiene-3-one], on original RP (pGT45), the “response (serum mSEAP) of mice to inducer” value is listed as “responded well”. Also, the “IP-10 levels at lowest MFP dose” value in the data set on IP-10 [1] is recorded as “no increase over background IP-10 levels”. For the same molecule, at V729L/W755A RP (pBRES), the “activity of engineered RP when induced” value is given as “retained full activity”.

As to `CCCOc1cc([C@]2(C)CNC(=O)O2)ccc1OC` [Mesopram], the “clinical scores of EAE, positive controls” value in the data set on murine acute EAE model (first study) and in the data set with murine acute EAE model (second study) was “significantly decreased clinical scores” in each case.

On to `C[C@]12C=CC(=O)C=C1CC[C@@H]1[C@@H]2[C@@H](O)C[C@@]2(C)[C@H]1CC[C@]2(O)C(=O)CO` [Prednisolone], for which the “clinical scores of EAE, positive controls” value in the data set on murine acute EAE model (first study) and with murine acute EAE model (second study) was “significantly decreased clinical scores” each time.

In the case of “GAL-4 residues 1-100: N-terminal DNA binding domain fragment of yeast GAL-4 protein”, the Kd on GAL-4 DBS is 3 nM.

On to “mIFN-β: purified recombinant murine interferon-β protein expressed in 293E cells”, for which the “specific activity of the purified protein” value in data set [2] is 2×10^8 units/mg. In the data set with Mx1 RNA [3], the “increase in the level of Mx1 RNA” value is listed as 100 fold. In the data set on Mx1 RNA [3] (4 hours treatment), the “EC50 of Mx1 RNA induction” value was “approximately 50 pg/ml”. In addition, the “time of highest Mx1 expression levels after injection” value in the data set on Mx1 RNA [4] (bolus protein) amounted to 2 h. For the same molecule, the “time after injection beyond which no Mx1 RNA levels above background were detected” value in the data set on Mx1 RNA [4] (bolus protein i.m.) came to 12 h. Further, in the data set with IP-10 [5] (each of three doses, i.v. or i.m.), the “time of drop to background of IP-10 plasma level” value is not above 24 h. The “increase of IP-10 levels” value with IP-10 [5] (high dose delivered i.v.) turned out to be 3000 fold. Besides, in the data set on murine acute EAE model (first study, 30,000 units s.c. every other day), the “clinical scores of EAE compared to vehicle treated mice” value is “did not reach statistical significance”. The “clinical scores of EAE compared with vehicle treated mice” value in the data set on murine acute EAE model (first study, 100,000 units s.c. every other day) is “significantly decreased clinical scores”. Further, the “clinical scores compared to the vehicle control treated mice” value in the data set with murine acute EAE model (second study, 100,000 Units s.c. every other day) was “significantly decreased clinical scores”. In addition, in the data set with JE, the “time of drop to background of JE plasma level” value is not above 24 h.

These data come from US20110020925A1, “NEW MODULATING MOLECULES FOR AN IMPROVED REGULATED EXPRESSION SYSTEM” (BAYER SCHERING PHARMA AKTIENGESELLSCHAFT, priority 2007, published 2011).
